The source of these data is US20230002374A1, “GPR52 MODULATOR COMPOUNDS” (Heptares Therapeutics Limited, priority 2019, published 2023).

The target of the test is human GPR52 (Homo sapiens, UniProt Q9Y2T5). Nature of the test: GPR52 Agonist Functional cAMP Assay.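 On all read-outs here: HEKf cells transduced with GPR52 BacMam for 24 h, 2000 per well, exposed to compounds 30 min at 37° C with 0.5 mM IBMX, cAMP read by HTRF.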 As to conditions: for Emax: maximal response normalised to DMSO (0%) and maximal compound 7m (J. Med. Chem., 2014, 57, 5226) response (100%); for EC50: pEC50 average, HEKf cells infected with human GPR52 BacMam virus, cAMP HTRF, 30 min at 37° C.
Sequence of human GPR52 (Q9Y2T5 whole entry): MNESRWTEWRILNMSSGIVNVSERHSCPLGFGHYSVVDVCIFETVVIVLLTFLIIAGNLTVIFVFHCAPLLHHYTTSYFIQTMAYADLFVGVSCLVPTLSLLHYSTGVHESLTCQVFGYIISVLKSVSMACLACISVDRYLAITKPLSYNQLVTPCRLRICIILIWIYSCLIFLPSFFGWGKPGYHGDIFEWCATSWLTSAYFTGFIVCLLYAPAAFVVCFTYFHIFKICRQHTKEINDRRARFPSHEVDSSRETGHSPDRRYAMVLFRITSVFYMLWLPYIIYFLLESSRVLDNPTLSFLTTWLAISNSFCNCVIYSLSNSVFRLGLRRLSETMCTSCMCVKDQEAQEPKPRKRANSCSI

Take `O=C1NCCc2c1cnn2-c1ccnc(Cc2cc(F)c(Cl)c(F)c2)c1` [Example 58, 1-(2-(4-chloro-3,5-difluorobenzyl)pyridin-4-yl)-1,5,6,7-tetrahydro-4H-pyrazolo[4,3-c]pyridin-4-one]: the Emax came to 79% and the EC50 is 100 nM.
In turn, `O=C1NCCc2c1cnn2-c1ccnc(Cc2cc(F)c(C(F)(F)F)c(F)c2)c1` [Example 70, 1-(2-(3,5-difluoro-4-(trifluoromethyl)benzyl)pyridin-4-yl)-1,5,6,7-tetrahydro-4H-pyrazolo[4,3-c]pyridin-4-one] gave an Emax of 74% and an EC50 of 316 nM.
On to `O=C1NCCc2nn(-c3cc(Cc4cc(F)cc(C(F)(F)F)c4)ccn3)nc21` [Example 98, 2-(4-(3-fluoro-5-(trifluoromethyl)benzyl)pyridin-2-yl)-2,5,6,7-tetrahydro-4H-[1,2,3]triazolo[4,5-c]pyridin-4-one], for which the Emax was 92% and a half-maximal response (EC50) required 158 nM.
The matching figures for `O=C1NCCc2c1cnn2-c1ccnc(Cc2cc(F)cc(C3(C(F)(F)F)CC3)c2)c1` [Example 74, 1-(2-(3-fluoro-5-(1-(trifluoromethyl)cyclopropyl)benzyl)pyridin-4-yl)-1,5,6,7-tetrahydro-4H-pyrazolo[4,3-c]pyridin-4-one]: 53% and 501 nM.
Compound `Cc1cnc(Cc2cc(F)cc(C(F)(F)F)c2)cc1-n1ncc2c1CCNC2=O` [Example 108, 1-(2-(3-fluoro-5-(trifluoromethyl)benzyl)-5-methylpyridin-4-yl)-1,5,6,7-tetrahydro-4H-pyrazolo[4,3-c]pyridin-4-one] showed an Emax of 80% and an EC50 of 79.4 nM.
Taken in the same sequence, the figures for `O=C1NCCc2c1cnn2-c1ccnc(Cc2cnc(OC(F)F)c(F)c2)c1` [Example 110, 1-(2-((6-(difluoromethoxy)-5-fluoropyridin-3-yl)methyl)pyridin-4-yl)-1,5,6,7-tetrahydro-4H-pyrazolo[4,3-c]pyridin-4-one] were 74% and 501 nM.
Consider `O=C1NCCCc2c1nnn2-c1cc(Cc2cc(F)cc(C(F)(F)F)c2)ccn1` [Example 46, 1-(4-(3-fluoro-5-(trifluoromethyl)benzyl)pyridin-2-yl)-5,6,7,8-tetrahydro-[1,2,3]triazolo[4,5-c]azepin-4(1H)-one], for which the Emax turned out to be 90% and the EC50 was 200 nM.
The matching figures for `O=C1NCCOc2nn(-c3ccnc(Cc4cc(F)cc(C(F)(F)F)c4)c3)cc21` [Example 112, 2-(2-(3-fluoro-5-(trifluoromethyl)benzyl)pyridin-4-yl)-6,7-dihydro-2H-pyrazolo[4,3-f][1,4]oxazepin-4(5H)-one]: 77% and 398 nM.
Taken in the same sequence, the figures for `Cc1nn(-c2ccnc(Cc3cc(F)cc(Cl)c3)c2)c2c1C(=O)NCC2` [Example 79, 1-(2-(3-chloro-5-fluorobenzyl)pyridin-4-yl)-3-methyl-1,5,6,7-tetrahydro-4H-pyrazolo[4,3-c]pyridin-4-one] were 99% and 12.6 nM.
For `O=C1NCCc2c1cnn2-c1ccnc(Cc2cccc(C(F)(F)F)c2F)c1` [Example 29, 1-(2-(2-fluoro-3-(trifluoromethyl)benzyl)pyridin-4-yl)-1,5,6,7-tetrahydro-4H-pyrazolo[4,3-c]pyridin-4-one], the Emax came out at 57% and the EC50 is 2510 nM.
`Cc1nn(-c2ccnc(Cc3cccc(C(F)(F)F)c3)c2)c2c1C(=O)NCC2` [Example 78, 3-methyl-1-(2-(3-(trifluoromethyl)benzyl)pyridin-4-yl)-1,5,6,7-tetrahydro-4H-pyrazolo[4,3-c]pyridin-4-one] had an Emax of 94% and an EC50 of 20 nM.
Compound `O=C1NCCCc2c1cnn2-c1cc(Cc2cccc(C(F)(F)F)c2)ccn1` [Example 11, 1-(4-(3-(trifluoromethyl)benzyl)pyridin-2-yl)-5,6,7,8-tetrahydropyrazolo[4,3-c]azepin-4(1H)-one] gave an Emax of 86% and a concentration giving a half-maximal response (EC50) of 63.1 nM.
